B1: DNMT1: shRNA knocking down DNMT1; Open Biosystems V2MM_46797 or synthesized shRNA SEQ ID NO: 5 (nucleic acid)
chain: TGCTGTTGACAGTGAGCGCGCCCATCCTCAGGGACCATATTAGTGAAGCCACAGATGTAATATGGTCCCTGAGGATGGGCTTGCCTACTGCCTCGGA

Experiments:
Assay type in all cases: cell-based, mouse
Fas promoter [1] = assay: Methylated DNA immunoprecipitation (MeDIP) of the Fas promoter; conditions: K-ras NIH 3T3 cells, 10 μM 5-aza for 72 h
Text: To facilitate analysis of the methylation status of these three regions in the 28 K-ras NIH 3T3 KD cell lines we established and validated a rapid methylated DNA immunoprecipitation (MeDIP) assay, in which the antibody is directed against 5-methyl-cytosine (Weber, M. et al., Nat. Genet. 37, 853-862 (2005)). […] We then assessed the three hypermethylated Fas promoter regions in each of the 28 K-ras NIH 3T3 KD cell lines.
(§1) Chromatin immunoprecipitation (ChIP) and methylated DNA immunoprecipitation (MeDIP). ChIP assays were performed using extracts prepared 7 days following retroviral transduction and puromycin selection. […] MeDIP and ChIP products were visualized by autoradiography, or analyzed by quantitative real-time PCR using Platinum SYBR Green qPCR SuperMix-UDG with Rox (Invitrogen). […] Quantitative real time RT-PCR. […] Reverse transcription was performed using SuperScript II Reverse Transcriptase (Invitrogen) as per the manufacturer's instructions, followed by quantitative real-time PCR as described above. […] Tumour dimensions were measured every 3 days from the time of appearance of the tumours, and tumour volume was calculated using the formula π/6×(length)×(width)^2. […]

Fas = assay: Immunoblot analysis of Fas re-expression in K-ras NIH 3T3 cells; conditions: 10 μM 5-aza for 72 h
Procedure: (§2) Cell culture. NIH 3T3 (ATCC# CRL-1658) and K:Molv NIH 3T3 (ATCC# CRL-6361; referred to here as K-ras NIH 3T3) cells were maintained in DMEM supplemented with 10% FCS at 37° C. and 5% CO2. For 5-aza-2′-deoxycytidine (5-aza) treatment, K-ras NIH 3T3 cells were treated with 10 μM 5-aza for 72 h.
Immunoblot analysis. To prepare cell extracts, K-ras NIH 3T3 knockdown cell lines were harvested 7 days following retroviral transduction and puromycin selection (1.5 μg ml^−1) and lysed by boiling in 1× SDS sample buffer (Laemmli buffer) for 5 min. Proteins were resolved by 12% SDS-PAGE. Immunoblot analysis was performed using an anti-Fas (sc-716; Santa Cruz) or anti-p21 Ras (ab16795; Abcam) antibody to monitor expression of K-Ras (as a loading control), and an appropriate HRP-conjugated secondary antibody. Proteins were visualized using SuperSignal West Pico Luminol/Enhancer Solution (Pierce).

[2] = test system: Sfrp1, Par4/Pawr, Plagl1, H2-K1 and Lox; assay: qRT-PCR expression of other epigenetically silenced genes in K-ras NIH 3T3 cells; conditions: 10 μM 5-aza for 72 h
Procedure: as §2, §1

Fas promoter [3] = assay: Bisulphite sequencing of the Fas promoter; conditions: shRNA knockdown
Procedure: Bisulphite sequencing. Bisulphite modification was carried out essentially as described (Frommer, M. et al., Proc. Natl. Acad. Sci. USA 89, 1827-1831 (1992)) except that hydroquinone was used at a concentration of 125 mM during bisulphite treatment carried out in the dark and DNA was desalted on Qiaquick columns (Qiagen) after the bisulphite reaction. The regions analyzed were amplified by nested PCR. The first round comprised 24 cycles at 94° C. for 1 min, 48° C. for 1 min 30 s, and 72° C. for 1 min. One-tenth of the product was used as substrate for the second round of PCR comprising 28 cycles at 94° C. for 1 min, 48° C. for 1 min 30 s, 72° C. for 1 min.

Row | Molecule | hypermethylation of Fas promoter TSS/DS region (MeDIP) (Fas promoter [1]) | Fas expression (Fas) | expression of Sfrp1, Par4/Pawr, Plagl1, H2-K1 and Lox (all five genes) [2] | hypermethylation of three Fas promoter regions (bisulphite sequencing) (Fas promoter [3]; H-ras transformed C3H10T1/2 cells) | hypermethylation of TSS/DS region of the Fas promoter (bisulphite sequence analysis) (Fas promoter [3]; K-ras NIH 3T3 cells)
1 | Nc1ncn([C@H]2C[C@H](O)[C@@H](CO)O2)c(=O)n1 [5-aza, 5-aza-2′-deoxycytidine] | not hypermethylated | restored Fas expression | re-expressed | – | –
2 | B1 | – | – | – | not | no longer hypermethylated
